In series [1] the target is Poly [ADP-ribose] polymerase 1 (Homo sapiens, UniProt P09874). Briefly: Inhibition of PARP1 (unknown origin) using histone as substrate by ELISA. Background: ELISA stands for enzyme-linked immunosorbent assay.
Series [2] has as its system CAPAN-1. Briefly: Antiproliferative activity against human CAPAN-1 cells assessed as cell proliferation inhibition incubated for 7 days by SRB assay. The class given is functional, cell-based. Background: In SRB staining, fixed cells bind dye roughly in proportion to their protein.
A short description of series [3]: Antiproliferative activity against human Olaparib-resistant CAPAN-1 cells assessed as cell proliferation inhibition incubated for 7 days by SRB assay. The series is classed as functional, cell-based.
The subject of series [4] is CAPAN-1. Description: Antiproliferative activity against human Talazoparib-resistant CAPAN-1 cells assessed as cell proliferation inhibition incubated for 7 days by SRB assay. The series is classed as functional, cell-based.
Series [5] in a line: Stabilization of human His-tagged PARP1-DNA complex assessed as increase in fluorescence signal incubated for 60 mins using NAD+ as substrate by DSB fluorescence polarization assay. On the technique in general: Fluorescence polarisation rises when a labelled molecule tumbles more slowly, as on binding a larger partner.
Series [6] is described as follows: Clearance in Sprague-Dawley rat at 5 mg/kg, iv and measured upto 24 hrs. The class given is ADME, organism-based. As to conditions: in vivo.
Series [7] in a line: Half life in Sprague-Dawley rat at 5 mg/kg, iv and measured upto 24 hrs. The series is classed as ADME, organism-based. As to conditions: in vivo.

The values below come from ChEMBL document CHEMBL5365431 (J Med Chem, 2023).

Poly [ADP-ribose] polymerase 1, sequence (P09874 whole entry): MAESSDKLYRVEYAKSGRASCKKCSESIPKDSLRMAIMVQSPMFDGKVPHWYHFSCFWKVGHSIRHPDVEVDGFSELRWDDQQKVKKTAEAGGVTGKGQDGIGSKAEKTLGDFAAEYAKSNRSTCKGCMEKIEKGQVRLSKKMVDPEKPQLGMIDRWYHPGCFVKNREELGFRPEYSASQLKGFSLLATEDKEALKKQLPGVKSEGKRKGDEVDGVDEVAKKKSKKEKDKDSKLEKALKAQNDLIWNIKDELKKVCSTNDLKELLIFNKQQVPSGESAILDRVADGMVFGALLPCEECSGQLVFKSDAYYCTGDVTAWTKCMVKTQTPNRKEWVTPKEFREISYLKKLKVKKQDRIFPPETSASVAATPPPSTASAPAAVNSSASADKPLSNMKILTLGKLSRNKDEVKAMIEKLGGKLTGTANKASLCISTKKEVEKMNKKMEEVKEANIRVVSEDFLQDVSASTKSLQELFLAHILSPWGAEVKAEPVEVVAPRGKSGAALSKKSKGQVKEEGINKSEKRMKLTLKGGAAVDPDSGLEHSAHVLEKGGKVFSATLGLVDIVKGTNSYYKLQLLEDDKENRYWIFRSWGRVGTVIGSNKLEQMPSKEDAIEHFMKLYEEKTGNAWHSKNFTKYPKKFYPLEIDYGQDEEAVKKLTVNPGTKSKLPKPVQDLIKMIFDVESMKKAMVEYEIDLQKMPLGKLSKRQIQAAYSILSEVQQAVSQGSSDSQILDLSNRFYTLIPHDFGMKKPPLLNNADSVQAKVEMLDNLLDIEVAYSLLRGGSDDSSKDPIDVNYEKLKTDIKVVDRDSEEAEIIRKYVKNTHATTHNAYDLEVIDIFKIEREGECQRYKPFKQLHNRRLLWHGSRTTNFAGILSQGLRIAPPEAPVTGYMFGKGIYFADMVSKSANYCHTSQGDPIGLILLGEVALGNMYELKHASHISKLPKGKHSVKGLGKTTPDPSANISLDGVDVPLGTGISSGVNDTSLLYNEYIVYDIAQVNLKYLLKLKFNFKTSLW

Turning to `O=C(c1cc(Cc2n[nH]c(=O)c3ccccc23)ccc1F)N1CCn2c(nnc2-c2ccc([N+](=O)[O-])o2)C1`, the IC50 (as a rule, the midpoint of a concentration-inhibition curve) amounted to 47.4 nM in series [1], 5.89 nM in series [2], 178 nM in series [3] and 214 nM in series [4].
On the same counts, the results for `O=C(c1cc(Cc2n[nH]c(=O)c3ccccc23)ccc1F)N1CCn2c(nnc2-c2ccc(Cl)o2)C1` are 0.74 nM, 1.48 nM, 12.6 nM and 5.91 nM.
On the same counts, the results for `O=C(c1cc(Cc2n[nH]c(=O)c3ccccc23)ccc1F)N1CCn2c(nnc2-c2ccoc2)C1` are 0.44 nM, 8.81 nM, 73.6 nM and 42.5 nM.
`O=C(c1cc(Cc2n[nH]c(=O)c3ccccc23)ccc1F)N1CCn2c(nnc2-c2ccc(C(F)(F)CO)o2)C1`: the concentration for half-maximal inhibition (IC50) in series [1] is 5.67 nM; in series [2], 15.9 nM; in series [3], 137 nM; in series [4] it was 115 nM.
On the same counts, the results for `CNCc1ccc(-c2nnc3n2CCN(C(=O)c2cc(Cc4n[nH]c(=O)c5ccccc45)ccc2F)C3)o1` are 0.86 nM, 500 nM, 6150 nM and 4600 nM.
On the same counts, the results for `O=C(c1cc(Cc2n[nH]c(=O)c3ccccc23)ccc1F)N1CCn2c(nnc2-c2ccc(CN3CCCC3)o2)C1` are 1.26 nM, 161 nM, 1430 nM and 905 nM.
As to `Cc1cc(-c2nnc3n2CCN(C(=O)c2cc(Cc4n[nH]c(=O)c5ccccc45)ccc2F)C3)oc1C`, the half-maximal inhibitory concentration (IC50) was less than 0.001 nM in series [1], 1.44 nM in series [2], 22.1 nM in series [3] and 21 nM in series [4].
On the same counts, the results for `O=C(c1cc(Cc2n[nH]c(=O)c3ccccc23)ccc1F)N1CCn2c(nnc2-c2ccc(CN3CCSCC3)o2)C1` are 0.02 nM, 50.5 nM, 618 nM and 404 nM.
The corresponding values for `O=C(c1cc(Cc2n[nH]c(=O)c3ccccc23)ccc1F)N1CCn2c(nnc2-c2ccc(CN3CCCCC3)o2)C1` are 0.17 nM, 56.8 nM, 605 nM and 393 nM.
Take `Cc1ccc(-c2nnc3n2CCN(C(=O)c2cc(Cc4n[nH]c(=O)c5ccccc45)ccc2F)C3)o1`: the half-maximal inhibitory concentration (IC50) in series [1] is 0.24 nM; in series [2] it was 1.82 nM; in series [3] it was 8.28 nM; in series [4], 9.98 nM.
On the same counts, the results for `CN(C)Cc1ccc(-c2nnc3n2CCN(C(=O)c2cc(Cc4n[nH]c(=O)c5ccccc45)ccc2F)C3)o1` are 1.35 nM, 151 nM, 1030 nM and 941 nM.
Turning to `CCN(CC)Cc1ccc(-c2nnc3n2CCN(C(=O)c2cc(Cc4n[nH]c(=O)c5ccccc45)ccc2F)C3)o1`, the IC50 in series [1] worked out at 0.96 nM; in series [2], 98.3 nM; in series [3], 812 nM; in series [4], 701 nM.
The corresponding values for `O=C(c1cc(Cc2n[nH]c(=O)c3ccccc23)ccc1F)N1CCn2c(nnc2-c2ccc(CN3CCOCC3)o2)C1` are 1.28 nM, 290 nM, 5140 nM and 2000 nM.
Turning to `CNCC(F)(F)c1ccc(-c2nnc3n2CCN(C(=O)c2cc(Cc4n[nH]c(=O)c5ccccc45)ccc2F)C3)o1`, the half-inhibitory concentration (IC50) in series [1] came out at 8.15 nM; in series [2], 24.3 nM; in series [3] it was 423 nM; in series [4], 393 nM.
The corresponding values for `CP(C)(=O)c1ccc(-c2nnc3n2CCN(C(=O)c2cc(Cc4n[nH]c(=O)c5ccccc45)ccc2F)C3)o1` are 12.9 nM, 3550 nM, greater than 10000 nM and greater than 10000 nM.
On the same counts, the results for `NCC(F)(F)c1ccc(-c2nnc3n2CCN(C(=O)c2cc(Cc4n[nH]c(=O)c5ccccc45)ccc2F)C3)o1` are 8.49 nM, 122 nM, 766 nM and 627 nM.
On to `NC(=O)c1cccc2cn(-c3ccc([C@@H]4CCCNC4)cc3)nc12` [NIRAPARIB], for which, in series [5], the EC50 (as a rule, the concentration that produces a half-maximal response) was determined as 621 nM.
For the compound `O=C(c1cc(Cc2n[nH]c(=O)c3ccccc23)ccc1F)N1CCn2c(nnc2-c2ccc(C(F)F)o2)C1`, the IC50 in series [1] was found to be 23.1 nM; in series [2] it was 6.64 nM; in series [3], 71.1 nM; in series [4], 70.3 nM.
The corresponding values for `O=C(c1cc(Cc2n[nH]c(=O)c3ccccc23)ccc1F)N1CCn2c(nnc2-c2ccc(C(F)(F)F)o2)C1` are 61.7 nM, 2.32 nM, 52.3 nM and 6.09 nM.
For the compound `O=C(c1cc(Cc2n[nH]c(=O)c3ccccc23)ccc1F)N1CCN(C(=O)C2CC2)CC1` [OLAPARIB], the clearance – broadly, a measure of how efficiently the substance is removed, as volume per time – in series [6] stood at 34.3 mL/min/kg. Besides, the EC50 in series [5] was 234 nM. Further, the half-life (commonly how long it takes for the measured level to halve) in series [7] was 31.8 min.
On to `Cn1ccc(-c2nnc3n2CCN(C(=O)c2cc(Cc4n[nH]c(=O)c5ccccc45)ccc2F)C3)n1`, for which the IC50 in series [1] came out at 6.34 nM; in series [2], 30.4 nM; in series [3], 135 nM; in series [4], 168 nM.
On the same counts, the results for `O=C(c1cc(Cc2n[nH]c(=O)c3ccccc23)ccc1F)N1CCn2c(nnc2-c2cc(Br)c(Cl)o2)C1` are less than 0.1 nM, 0.24 nM, 20.3 nM and 12.1 nM.
Take `Cn1cc(-c2nnc3n2CCN(C(=O)c2cc(Cc4n[nH]c(=O)c5ccccc45)ccc2F)C3)cn1`: the IC50 in series [1] came out at 7.32 nM; in series [2], 351 nM; in series [3] it was 7160 nM; in series [4], 6990 nM.
In the case of `N#Cc1ccc(-c2nnc3n2CCN(C(=O)c2cc(Cc4n[nH]c(=O)c5ccccc45)ccc2F)C3)o1`, the values for the IC50 in series [1], in series [2] and in series [4] were 0.23 nM, 83.8 nM and greater than 10000 nM, respectively.
Consider `O=C(c1cc(Cc2n[nH]c(=O)c3ccccc23)ccc1F)N1CCn2c(nnc2-c2ccco2)C1`, for which the IC50 was 0.26 nM in series [1], 7.39 nM in series [2], 56.4 nM in series [3] and 40 nM in series [4].
The corresponding values for `O=C(c1cc(Cc2n[nH]c(=O)c3ccccc23)ccc1F)N1CCn2c(nnc2-c2ccc(CN3CCC3)o2)C1` are 0.96 nM, 349 nM, 6490 nM and 5590 nM.
Regarding `O=C(c1cc(Cc2n[nH]c(=O)c3ccccc23)ccc1F)N1CCn2c(nnc2-c2ccno2)C1`, the 50% inhibitory concentration (IC50) worked out at 0.97 nM in series [1], 18.6 nM in series [2], 348 nM in series [3] and 249 nM in series [4].
On to `Cn1ncnc1[C@H]1c2n[nH]c(=O)c3cc(F)cc(c23)N[C@@H]1c1ccc(F)cc1` [TALAZOPARIB], for which the 50% inhibitory concentration (IC50) in series [2] was determined as 7.77 nM; in series [3], 686 nM; in series [4], 906 nM.
On to `O=C(c1cc(Cc2n[nH]c(=O)c3ccccc23)ccc1F)N1CCn2c(nnc2-c2ccc(C3COC3)o2)C1`, for which the IC50 in series [1] turned out to be 6.19 nM; in series [2], 15.5 nM; in series [3], 363 nM; in series [4], 191 nM.
`O=C(c1cc(Cc2n[nH]c(=O)c3ccccc23)ccc1F)N1CCn2c(nnc2C2CCOC2)C1` (stereo not given): the IC50 worked out at 1.91 nM in series [1], 39.1 nM in series [2], 1110 nM in series [3] and 517 nM in series [4].
On the same counts, the results for `Cc1cccc(-c2nnc3n2CCN(C(=O)c2cc(Cc4n[nH]c(=O)c5ccccc45)ccc2F)C3)n1` are 13.5 nM, 6.47 nM, 42.2 nM and 68.5 nM.
With `O=C(c1cc(Cc2n[nH]c(=O)c3ccccc23)ccc1F)N1CCn2c(nnc2-c2ccc(C3CCOCC3)o2)C1`, the IC50 amounted to 2.33 nM in series [1], 3.8 nM in series [2], 78.2 nM in series [3] and 78.4 nM in series [4].
Regarding `Cc1nc(-c2nnc3n2CCN(C(=O)c2cc(Cc4n[nH]c(=O)c5ccccc45)ccc2F)C3)cs1`, the concentration for half-maximal inhibition (IC50) in series [1] stood at 2.14 nM; in series [2] it was 19 nM; in series [4], 203 nM.
